Literature values in patent US5045452A, “Method for evaluating nephrotoxicity” (Brigham and Women's Hospital, priority 1988, dated 1991).

Test system: N-acetyl-beta-D-glucosaminidase
Conditions: exposed workers

In the case of `[Pb]` [lead], the “urinary acetyl glucosaminidase excretion” value is given as “elevated”.
